{"source": "patent US12194057B2", "about": "“NXTAR-derived oligonucleotides and uses thereof” (Washington University, priority 2020, dated 2025)", "key": {"[1]": {"tested_on": "NXTAR", "experiment": "qRT-PCR of NXTAR expression in prostate cancer cell lines", "format": "cell-based, human", "procedure": "(§1) Cells were transfected, infected or treated [(R)-9b; EPZ6438, TargetMol, Cat #T1788] accordingly. RNA was used for cDNA preparation using High-Capacity cDNA Reverse Transcription Kit (Thermo Scientific Cat #4368814). Resulting cDNA was then analyzed by qPCR using an Applied Biosystems 7900 Real-Time PCR System (Thermo Scientific) and SYBR Green PCR Master Mix [SYBR PremixEx Taq II (Tli RNase H Plus) ROX, Clontech Takara, Cat #RR82LR] according to the manufacturers' instructions. Dissociation curves were generated for each plate to verify the integrity of the primers. The relative expression of RNAs was calculated using the comparative Ct or standard curve method. 18S rRNA or actin were used as internal controls."}, "[2]": {"tested_on": "NXTAR promoter", "experiment": "ChIP-qPCR at NXTAR promoter (Ppr3, Ppr4), IRF8 binding site and NXTAR enhancer", "format": "cell-based, human", "conditions": "22Rv1 and LNCaP cells, (R)-9b combined with CPTH2", "procedure": "(§2) Chromatin immunoprecipitation (ChIP), quantitative RT-PCR, and ChIP-qPCR were performed as described earlier (see e.g., Mahajan et al. (2017) Cancer Cell; Mahajan et al. (2012) J Biol Chem; and Mahajan et al. (2012) Nat Struct Mol Bio). Briefly, cells were either transfected, infected or treated with various inhibitors (R)-9b; CPTH2 (Sigma, Cat #C9873)], fixed in formaldehyde, lysed and ChIP was performed with antibodies recognizing AR (SCBT, sc-7305; RRID:AB_626671), GCN5 (SCBT, SC-365321; RRID:AB_10846182), H3K14ac (CST, 7627S; RRID:AB_10839410), H3K27me3 (CST, 9733S; RRID:AB 2616029), NCOR1 (Bethyl Laboratories, Cat #A301-145A; RRID:AB_873085), EZH2 (CST, 5246S; RRID:AB_10694683), or IgG (Abcam, ab2410; RRID:AB_303052), immobilized on Protein A magnetic beads (Biorad, Cat #161-4013). The complexes were washed with ChIP buffers, eluted with elution buffer (Active Motif, Cat #53008), and subjected to reverse crosslinking, followed by RNase and proteinase K treatments. A part of soluble chromatin was processed separately at the same time and designated as input DNA. Treated ChIP DNA and input DNAs were purified using PCR-DNA purification columns (Qiagen, Cat #28106). The amount of immunoprecipitated DNA was determined by real-time PCR."}, "[3]": {"tested_on": "AR", "experiment": "qRT-PCR of AR and AR target gene expression in prostate cancer cells", "format": "cell-based, human", "procedure": "(§3) NXTAR-N5 oligonucleotide was synthesized by IDT, and the oligonucleotide sequence is provided in TABLE 1 and FIG. 7C (* represents phosphorothioate bond modifications to avoid degradation by exonucleases). Equal numbers of VCaP and 22Rv1 cells were transfected with NXTAR-N5 or globin-derived oligonucleotide using X-tremeGENE360 (Sigma-Aldrich, Cat #08724121001), and the number of live cells was counted 96 h post-transfection using trypan blue exclusion method (Sigma, Cat #T8154). RNA was prepared from these cells, and qRT-PCR [SYBR PremixEx Taq II (Tli RNase H Plus)ROX, Clontech Takara, Cat #RR82LR] for AR and AR-V7 was performed as described earlier (see e.g., Mahajan et al. (2017) Cancer Cell).\nas §1"}, "[4]": {"tested_on": "VCaP and 22Rv1 cells", "experiment": "Proliferation assay, viable cells by trypan blue exclusion", "format": "cell-based, human", "procedure": "as §3\nThe 22Rv1, VCaP, or LNCaP cells were retrovirally infected with control or NXTAR vectors and selected in puromycin medium containing 5% charcoal-stripped serum. Equal numbers of selected cells were seeded in 6-well plates followed by treatment with either (R)-9b, enzalutamide (Selleck Chemicals, Cat #S1250), or abiraterone (Selleck Chemicals, Cat #52246), and the number of viable cells was counted by trypan blue exclusion assay."}, "[5]": {"tested_on": "upstream of AR", "experiment": "ChIRP with biotin-labeled oligos and VCaP lysate, qPCR with AR Up1.1 primers", "format": "binding, human", "conditions": "biotinylated oligo on streptavidin beads, VCaP lysate, qPCR AR Up1.1", "procedure": "(§4) Biotin-labeled NXTAR-N5 (complementary to the AR promoter) and globin oligos were synthesized (IDT) (see e.g., TABLE 1). ChIRP was performed using lysate from formaldehyde-fixed VCaP cells and oligos that were immobilized to streptavidin beads, as described earlier (see e.g., Chu and Chang (2016) Methods Mol Bio). The amount of the chromatin DNA was determined by real-time PCR. For detection of NXTAR-N5/EZH2 binding, biotin-labeled NXTAR-N5 oligo and control globin oligo were incubated with VCaP cell lysates and were subjected to chromatin pull-down, followed by immunoblotting with EZH2 antibodies."}, "[6]": {"tested_on": "AR-V7", "experiment": "qRT-PCR of AR-V7 expression in prostate cancer cells", "format": "cell-based, human", "conditions": "VCaP and 22Rv1 cells transfected with oligonucleotide", "procedure": "as §3\nas §1, with “18S rRNA or actin were used as internal controls.” left out"}, "[7]": {"tested_on": "AR promoter", "experiment": "ChIP-qPCR (EZH2, H3K27me3) at AR promoter", "format": "cell-based, human", "conditions": "VCaP cells transfected with oligo, ChIP", "procedure": "as §2"}, "[8]": {"target": "T1, EZH2 (Homo sapiens, UniProt Q15910)", "T1 construct": "endogenous in cells; host or cells: VCaP cells (some retrovirally infected to over-express NXTAR lncRNA)", "T1 sequence (Q15910 whole entry)": "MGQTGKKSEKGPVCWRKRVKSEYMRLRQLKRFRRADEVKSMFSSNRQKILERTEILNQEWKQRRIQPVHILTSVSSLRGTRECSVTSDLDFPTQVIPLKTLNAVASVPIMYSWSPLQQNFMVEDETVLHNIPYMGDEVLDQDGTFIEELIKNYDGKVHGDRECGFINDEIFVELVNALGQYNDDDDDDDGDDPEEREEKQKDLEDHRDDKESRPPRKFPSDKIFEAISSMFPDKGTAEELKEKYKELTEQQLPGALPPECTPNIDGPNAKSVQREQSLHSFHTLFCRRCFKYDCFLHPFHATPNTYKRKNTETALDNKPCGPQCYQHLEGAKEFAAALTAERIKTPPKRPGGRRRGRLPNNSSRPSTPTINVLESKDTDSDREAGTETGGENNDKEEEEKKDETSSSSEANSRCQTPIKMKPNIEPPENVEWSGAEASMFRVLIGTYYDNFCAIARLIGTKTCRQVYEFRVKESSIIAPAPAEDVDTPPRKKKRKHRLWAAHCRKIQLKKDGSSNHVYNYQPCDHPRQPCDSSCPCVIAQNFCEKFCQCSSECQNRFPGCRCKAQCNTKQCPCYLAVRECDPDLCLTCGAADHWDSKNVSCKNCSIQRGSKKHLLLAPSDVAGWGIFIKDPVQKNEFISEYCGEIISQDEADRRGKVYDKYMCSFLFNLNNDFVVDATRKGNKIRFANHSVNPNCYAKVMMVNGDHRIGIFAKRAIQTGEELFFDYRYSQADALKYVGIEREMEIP", "T1 sequence (O75530 whole entry partner)": "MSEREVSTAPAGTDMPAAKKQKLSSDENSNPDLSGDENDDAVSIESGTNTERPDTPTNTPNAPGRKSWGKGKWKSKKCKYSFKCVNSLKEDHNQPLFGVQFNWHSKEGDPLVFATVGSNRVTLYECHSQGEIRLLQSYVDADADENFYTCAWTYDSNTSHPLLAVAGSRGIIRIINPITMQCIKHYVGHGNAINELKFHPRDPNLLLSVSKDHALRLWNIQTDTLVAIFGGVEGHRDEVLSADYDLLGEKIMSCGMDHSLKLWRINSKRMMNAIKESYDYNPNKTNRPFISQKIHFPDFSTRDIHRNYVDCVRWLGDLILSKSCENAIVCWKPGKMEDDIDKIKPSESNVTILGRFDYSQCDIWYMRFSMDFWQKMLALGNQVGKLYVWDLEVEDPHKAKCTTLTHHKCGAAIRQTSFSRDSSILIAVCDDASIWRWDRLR", "T1 sequence (Q15022 whole entry partner)": "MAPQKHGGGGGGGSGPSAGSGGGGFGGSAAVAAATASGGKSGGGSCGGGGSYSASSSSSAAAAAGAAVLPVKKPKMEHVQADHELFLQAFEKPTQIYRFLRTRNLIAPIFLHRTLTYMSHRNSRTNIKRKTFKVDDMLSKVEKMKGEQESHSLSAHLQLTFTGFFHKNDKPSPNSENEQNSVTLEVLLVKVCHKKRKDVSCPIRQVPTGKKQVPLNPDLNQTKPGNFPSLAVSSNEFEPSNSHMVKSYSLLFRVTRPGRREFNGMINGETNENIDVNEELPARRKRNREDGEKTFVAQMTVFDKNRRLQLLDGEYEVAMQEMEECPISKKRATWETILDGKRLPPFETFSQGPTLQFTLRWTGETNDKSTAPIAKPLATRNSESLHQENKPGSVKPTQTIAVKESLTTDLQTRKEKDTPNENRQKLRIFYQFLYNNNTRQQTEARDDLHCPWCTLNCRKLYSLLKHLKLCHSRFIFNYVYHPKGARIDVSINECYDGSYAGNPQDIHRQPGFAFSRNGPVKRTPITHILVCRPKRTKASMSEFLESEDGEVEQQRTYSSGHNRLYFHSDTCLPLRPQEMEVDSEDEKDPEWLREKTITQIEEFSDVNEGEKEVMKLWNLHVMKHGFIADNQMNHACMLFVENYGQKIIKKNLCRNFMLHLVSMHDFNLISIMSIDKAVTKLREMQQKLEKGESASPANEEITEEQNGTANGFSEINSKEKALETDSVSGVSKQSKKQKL", "T1 sequence (Q09028 whole entry partner)": "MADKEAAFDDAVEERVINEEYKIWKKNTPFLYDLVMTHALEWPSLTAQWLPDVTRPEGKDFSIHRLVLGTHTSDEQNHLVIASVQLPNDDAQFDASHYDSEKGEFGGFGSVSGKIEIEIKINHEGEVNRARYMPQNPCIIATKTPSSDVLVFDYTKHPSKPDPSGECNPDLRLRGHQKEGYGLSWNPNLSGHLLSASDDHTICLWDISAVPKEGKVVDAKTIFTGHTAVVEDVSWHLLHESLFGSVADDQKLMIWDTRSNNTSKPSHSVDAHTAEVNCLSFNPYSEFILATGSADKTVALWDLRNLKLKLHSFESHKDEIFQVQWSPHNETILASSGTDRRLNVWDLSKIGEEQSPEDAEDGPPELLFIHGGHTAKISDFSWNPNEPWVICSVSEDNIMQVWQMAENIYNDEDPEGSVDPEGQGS", "experiment": "Pull-down from VCaP cell lysates with biotinylated oligos, immunoblotting for EZH2", "format": "binding", "conditions": "VCaP cell lysate, chromatin pull-down", "procedure": "The biotinylated oligonucleotides were incubated with lysates (2 h), and the lysates were incubated with streptavidin magnetic beads overnight. Beads attached to RNAs were divided equally and processed for either RNA isolation or western blotting. For RNA isolation, beads were washed three times and then separated using proteinase K treatment. RNA was then isolated and purified, and DNA was digested in the process. The real-time quantitative RT-PCR was performed on isolated RNA to check the efficiency of pull-down of NXTAR RNA. The remaining beads were heated at 80° C. for 5 min in loading buffer, followed by western blotting. The blots were probed with EZH2 (CST, 5246S; RRID:AB_10694683) antibody and Actin (SCBT, sc-47778; RRID:AB_2714189) was used as the loading control.\nas §4"}, "[9]": {"target": "T2, purified EZH2 (Homo sapiens, UniProt Q15910)", "T2 construct": "made in house", "T2 sequence (Q15910 whole entry)": "as the sequence (Q15910 whole entry) above", "experiment": "EZH2 pull-down assay with purified 6xHis-tagged EZH2", "format": "binding", "conditions": "pull-down, immunoblotting", "procedure": "1 mg of lysate prepared from HEK293 cells transfected with 6λHis-tagged-EZH2 plasmid was incubated with Ni-NTA agarose beads (Qiagene) overnight at 4° C. Beads were washed three times using wash buffer (20 mM Tris/HCl, 200 mM NaCl, 5 mM imidazole; pH 7.5) and purified EZH2 was eluted using elution buffer (20 mM Tris/HCl, 200 mM NaCl, 200 mM imidazole; pH 7.5).\nLncRNA-Protein binding study was performed as described earlier (see e.g., Zhao, Wang, and Hu (2021) Methods Mol Bio). Briefly, 10 pmol Biotinylated NXTAR-N5 oligo or Biotinylated Globin oligos were diluted in 40 ul RNA structure buffer, heated at 90° C. for 2 min, immediately transferred onto ice for 2 min and then kept at RT for further 20 mins. 10 uM of purified EZH2 protein was added to these biotinylated oligos with 500 ul of NETN buffer and the tubes were placed at 4° C. for 2 hrs. Post washing with cold NETN buffer, streptavidin magnetic beads (60 ul) were added into prepared oligo-protein mix and incubated at 4° C. overnight. Beads were washed 3 times with NETN buffer, followed by western blot analysis. […]"}, "[10]": {"conditions": "Enzalutamide-resistant VCaP cells, 7 μM enzalutamide, 96 h"}}, "note": "Oligonucleotides are written 5' to 3', each unit as a sugar letter and its base; * is a phosphorothioate linkage, no mark a phosphodiester; rarer units and linkages stand in square brackets, end groups in braces. Plain capitals give the bases only. d = 2'-deoxy (DNA)"}
{"compound": "Clc1ccc(-c2csc(NN=C3CCCC3)n2)cc1", "note": "[CPTH2]", "values": [{"measurement": "NXTAR levels following (R)-9b treatment under GCN5 inhibition", "setting": "[1]; 22Rv1 and LNCaP cells, CPTH2 in combination with (R)-9b", "result": "severely compromised"}, {"measurement": "H3K14ac mark deposition at Ppr3 and Ppr4", "setting": "[2]", "result": "abrogated"}]}
{"compound": "CCN(c1cc(-c2ccc(CN3CCOCC3)cc2)cc(C(=O)NCc2c(C)cc(C)[nH]c2=O)c1C)C1CCOCC1", "note": "[EPZ6438, reference compound]", "values": [{"measurement": "AR expression", "setting": "[3]; VCaP cells infected with NXTAR construct, EPZ6438 1 μM overnight", "result": "restored the AR expression"}]}
{"compound": "CNC(=O)c1ccc(N2C(=S)N(c3ccc(C#N)c(C(F)(F)F)c3)C(=O)C2(C)C)cc1F", "note": "[enzalutamide, reference compound]", "values": [{"measurement": "NXTAR levels", "setting": "[1]; [10]", "result": "no change in NXTAR levels"}, {"measurement": "AR levels", "setting": "[3]; [10]", "result": "marginal decrease in AR levels"}, {"measurement": "proliferation (number of viable cells)", "setting": "[4]; VCaP (9 days) and 22Rv1 (5 days) cells, androgen-deprived, drug treatment", "result": "did not result in a significant decrease in proliferation"}]}
{"compound": "NXTAR-N5: 60-mer oligonucleotide, nt 511-570 of SEQ ID NO: 58, terminal phosphorothioate bonds (SEQ ID NO: 1) (DNA dA*dT*dT*dAdTdTdAdTdTdTdTdAdAdAdTdTdTdAdCdAdGdAdAdGdGdGdGdAdAdAdCdTdAdAdGdAdAdTdTdAdTdAdGdAdCdAdTdGdAdAdGdTdGdAdCdTdC*dA*dC*dC)", "values": [{"measurement": "binding upstream of AR", "setting": "[5]", "result": "bound upstream of AR"}, {"measurement": "AR-V7 transcription", "setting": "[6]", "result": "significant decrease"}, {"measurement": "AR transcription", "setting": "[3]; VCaP and 22Rv1 cells transfected with oligonucleotide", "result": "significant decrease"}, {"measurement": "AR expression", "setting": "[3]; transfection of oligos, prostate and other cancer cell lines", "result": "highly effective"}, {"measurement": "histone H3K27 methylation in the AR promoter region (−0.7 kb)", "setting": "[7]", "result": "induced histone H3K27 methylation"}, {"measurement": "proliferation (live cells)", "setting": "[4]; VCaP and 22Rv1 cells, 96 h post-transfection", "result": "compromised proliferation"}, {"measurement": "interaction with EZH2", "setting": "[8]", "result": "interaction with EZH2 was confirmed"}, {"measurement": "interaction with purified EZH2", "setting": "[9]", "result": "interaction with purified EZH2 (as described above) was confirmed"}]}
